Measurements published in the CheMixHub ionic liquid set.
± gives the uncertainty stated by the source.

Test: xn = mol fraction of the nth substance listed

c1nnn[nH]1 + CCCC[P+](CCCC)(CCCC)CCCC.[Cl-] + [N]=O
303.15 K, 101.3 kPa
Details	viscosity [mPa·s]
x1 = 0.2439, x2 = 0.2439	3.1 ± 1.4
x1 = 0.2518, x2 = 0.2518	4 ± 1.3
x1 = 0.2597, x2 = 0.2597	4 ± 1.4
x1 = 0.2723, x2 = 0.2723	6 ± 1.9
x1 = 0.2867, x2 = 0.2867	9.2 ± 2.4

CCCCCC[n+]1ccn(C)c1.O=S(=O)([N-]S(=O)(=O)C(F)(F)F)C(F)(F)F + CC#N
298.15 K, 100 kPa
Details	electrical conductivity [S/m]
x1 = 0.03801	3.3 ± 0.3
x1 = 0.0581	3.7 ± 0.4
x1 = 0.08404	4 ± 0.4
x1 = 0.1205	3.6 ± 0.4
x1 = 0.1763	2.8 ± 0.3

CC[n+]1ccn(CCOC)c1.O=S(=O)([O-])C(F)(F)F + CCO
101 kPa
Details	viscosity [mPa·s]
288.15 K, x1 = 0.2996	7.66 ± 0.28
293.15 K, x1 = 0.699	35.3 ± 1.1
293.15 K, x1 = 0.797	47.3 ± 1.3
293.15 K, x1 = 0.899	64.4 ± 1.7
298.15 K, x1 = 0.1999	3.6 ± 0.11
298.15 K, x1 = 0.797	38.9 ± 1.1
303.15 K, x1 = 0.0996	1.934 ± 0.047
303.15 K, x1 = 0.1999	3.231 ± 0.095
303.15 K, x1 = 1	57.9 ± 1.5
308.15 K, x1 = 0.603	14.85 ± 0.53
308.15 K, x1 = 0.797	26.79 ± 0.74
308.15 K, x1 = 0.899	37.34 ± 0.96
313.15 K, x1 = 0.797	22.71 ± 0.6
318.15 K, x1 = 0.797	19.43 ± 0.5

CCCCCC[n+]1ccn(C)c1.[Br-] + CC(=O)Oc1ccccc1C(=O)O + CC#N
viscosity [mPa·s], 101 kPa
Details	288.15 K	298.15 K	308.15 K	318.15 K
x2 = 0, x1 = 0.004174	0.403 ± 0.009	0.364 ± 0.008	0.333 ± 0.007	0.306 ± 0.007
x2 = 0, x1 = 0.008131	0.424 ± 0.009	0.383 ± 0.008	0.35 ± 0.008	0.322 ± 0.007
x2 = 0, x1 = 0.01172	0.424 ± 0.009	0.389 ± 0.008	0.371 ± 0.008	0.342 ± 0.007

CCCCCCCCOS(=O)(=O)[O-].CC[n+]1ccn(C)c1 + O + O=S(=O)([O-])[O-].[Na+].[Na+]
101 kPa, frequency 0.0005 MHz, x2 = 0.7732, x3 = 0.0003656
Details	electrical conductivity [S/m]
283.15 K	0.483 ± 0.029
285.15 K	0.523 ± 0.032
288.15 K	0.59 ± 0.036
291.15 K	0.655 ± 0.04
293.15 K	0.699 ± 0.042
298.15 K	0.829 ± 0.05
303.15 K	0.977 ± 0.059
313.15 K	1.35 ± 0.081
323.15 K	1.68 ± 0.1
333.15 K	2.11 ± 0.13
343.15 K	2.63 ± 0.16
353.15 K	3.13 ± 0.19
358.15 K	3.41 ± 0.21
363.15 K	3.72 ± 0.22

101 kPa, x2 = 0.7732, x3 = 0.0003656
Details	viscosity [mPa·s]
295.65 K	86.6 ± 2
298.15 K	75.4 ± 1.7
303.15 K	58 ± 1.3
308.15 K	45.4 ± 1
318.15 K	29.06 ± 0.64
328.15 K	19.55 ± 0.43
338.15 K	13.72 ± 0.3
